Structures are written as SMILES. Like-named read-outs stand apart in the source and are kept apart here.

Common to all, as to format: cell-based
One assay deals with PAXF1657 KO Clone #4. Description: 7-day cellular proliferation assay (CellTiter-Glo), PAXF1657 KO Clone #4. The method, then: (§1) In order to identify compounds specific for GRK2, we generated two isogenic cell line pairs of the pancreatic cancer cell line PAXF1657, a pair of cells stably overexpressing GRK2 cDNA or the control empty vector and a cell line pair of PAXF1657 GRK2 knockout clonal cells versus non-targeting control clonal cells.
(§2) Proliferation Assay: Cellular anti-proliferative activity of compounds was assessed by using the pancreatic cancer cell line, PAXF1657, stably overexpressing GRK2 cDNA or the control empty vector, as well as the parental urinary bladder cancer cell line, 5637. In addition, we also took advantage of GRK2 knockout cell lines that were generated via CRISPR. Cell lines were seeded into tissue culture treated, white-walled, 96-well plates at a density of 500 cells/well in RPMI1640 media supplemented with 10% H.I. FBS and penicillin/streptomycin. Plates were incubated overnight at 37° C., 5% CO2 to allow cells to adhere to the wells. GRK2 inhibitors were added to the cells using a 10-point dilution series with a final concentration ranging from 30 μM-0.0002 μM in 0.3% DMSO. At the time of compound addition, a set of plates, that were not treated with compounds, were collected and cell viability was measured using CellTiter-Glo (Promega). CellTiter-Glo reagent was added to the designed plates and luminescence was measuring using a Biotek Synergy plate reader. The compound treated cells were incubated for 3 days at 37° C., 5% CO2. The media was then aspirated from each well and replaced with fresh media containing GRK2 inhibitors. The compound treated cells were then incubated for an additional 4 days at 37° C., 5% CO2. Cell viability was assessed and at end of the 7-day compound treatment by CellTiterGlo.
(Cellular ATP, detected with luciferase, serves as a proxy for viable cell number.)

A further assay concerns the target T1, GRK2 (Homo sapiens, UniProt P25098).
T1 sequence (P25098 1-689): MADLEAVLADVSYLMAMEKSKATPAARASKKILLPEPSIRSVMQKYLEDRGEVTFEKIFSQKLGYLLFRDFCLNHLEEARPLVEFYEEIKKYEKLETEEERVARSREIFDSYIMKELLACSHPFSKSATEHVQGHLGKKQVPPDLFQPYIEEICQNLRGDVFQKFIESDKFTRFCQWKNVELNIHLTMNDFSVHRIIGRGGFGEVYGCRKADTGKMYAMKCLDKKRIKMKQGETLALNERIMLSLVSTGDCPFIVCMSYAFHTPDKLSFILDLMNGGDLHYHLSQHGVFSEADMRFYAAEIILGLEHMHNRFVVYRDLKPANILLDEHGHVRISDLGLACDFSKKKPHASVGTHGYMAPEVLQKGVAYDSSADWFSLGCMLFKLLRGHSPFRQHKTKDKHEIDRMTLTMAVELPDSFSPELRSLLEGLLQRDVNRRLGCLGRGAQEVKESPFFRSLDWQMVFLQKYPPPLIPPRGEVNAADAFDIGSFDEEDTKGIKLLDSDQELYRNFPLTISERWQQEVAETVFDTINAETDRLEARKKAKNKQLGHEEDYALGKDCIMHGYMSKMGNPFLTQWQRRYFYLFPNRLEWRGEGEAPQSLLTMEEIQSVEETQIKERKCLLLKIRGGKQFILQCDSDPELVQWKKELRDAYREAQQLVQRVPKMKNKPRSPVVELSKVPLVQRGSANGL
Description: GRK2 Degradation Assay and Western Blot in PAXF1657 cells. Also on record: endogenous in cells; host or cells: PAXF1657. The method, then: General Protocol: Degradation Assay and Western Blot. PAXF1657 cells were plated in 6-well, 24-well plates or 60 mm tissue culture treated dishes and incubated at 37° C. until 70% confluency. The media was aspirated, and the cells were treated with fresh media containing the compounds in the concentration range of 0 μM to 10 μM for a period of 6 to 24 hours. At the desired time points the cells were washed twice with cold PBS and lysed with lysis buffer (ice cold PBS+1% NP40 with 1/100 protease/phosphatase inhibitors) on ice for 8 mins followed by sonication at 70% intensity pulses for 10 seconds. The cells were centrifuged at 20000 g for 8 min at 4° C. The supernatants were collected and stored at −80° C.
Samples were mixed with NuPAGE LDS sample buffer and NuPAGE sample reducing buffer (3×), vortexed and heated at 95° C. for 10 min, and then analyzed by SDS-PAGE (NuPAGE 4-12%) followed by transfer to nitrocellulose membrane. […] The membranes were washed three times with TBST and incubated with GRK2 or R-actin antibodies in 5% milk in TBST at 4° C. overnight. The membranes were washed three times with TBST and incubated with anti-mouse IgG-HRP or anti-rabbit IgG-HRP at room temperature for 2 hours in 5% milk in TBST. The membranes were washed three times with TBST and developed with ECL Dura, ECL femto or ECL atto substrates.
On the technique in general: Immunoblotting shows a protein as a band on a membrane.

A further assay concerns PAXF1657 EV. Description: 7-day cellular proliferation assay (CellTiter-Glo), PAXF1657 EV. The method, then: as §1, §2
Setting [1] is: proliferation, read-out: GeoMean IC50 (uM) PAXF1657 KO Clone #4.
[2] abbreviates: Conc 0.3 uM, read-out: Degradation Assay - 3 point: Degradation (%).
[3] abbreviates: Conc 1 uM, read-out: Degradation Assay - 3 point: Degradation (%).
Setting [4] is: Conc 3 uM, read-out: Degradation Assay - 3 point: Degradation (%).
Where [5] appears, read: proliferation, read-out: GeoMean IC50 (UM) PAXF1657 EV.
Where [6] appears, read: 168 h, 7-day, read-out: 7-day proliferation assay: IC50 GeoMean (uM) [Cell Line: PAXF1657 KO Clone #4].
The mark [7] stands for this setting: 0.3 uM, PAXF1657 EV, 24 hrs, read-out: % GRK2 degradation at 0.3 uM in PAXF1657 EV (24 hrs).
Setting [8] is: 1 uM, PAXF1657 EV, 24 hrs, read-out: % GRK2 degradation at 1 uM in PAXF1657 EV (24 hrs).
Setting [9] is: 3 uM, PAXF1657 EV, 24 hrs, read-out: % GRK2 degradation at 3 uM in PAXF1657 EV (24 hrs).
The mark [10] stands for this setting: 168 h, 7-day, read-out: 7-day proliferation assay: IC50 GeoMean (uM) [Cell Line: PAXF1657 EV].
[11] abbreviates: read-out: Degradation Assay - 3 point: Degradation (%).

Take `C[C@@H](NC(=O)c1cccc(NCc2nnc(-c3ccncn3)n2C)c1)c1cccc(OCCCCCCn2cc(CCCC(=O)Nc3cccc4c3CN(C3CCC(=O)NC3=O)C4=O)nn2)c1` (stereo partly drawn) [Compound D165]: the figures for the IC50 in the assay on PAXF1657 KO Clone #4 (setting [1]) and in the assay with PAXF1657 EV (setting [5]) were more than 30 µM and 2.6 µM, respectively. In addition, the inhibition at 0.3 µM on GRK2 (setting [2]) was -1.61%. Also, the inhibition at 1 µM on GRK2 (setting [3]) is 35.5%. Besides, at GRK2 (setting [4]), the inhibition at 3 µM was determined as 70.1%.
With `Cc1ncsc1-c1ccc(CNC(=O)[C@@H]2C[C@@H](O)CN2C(=O)[C@@H](NC(=O)COCCCOCCCCCOc2cccc([C@@H](C)NC(=O)c3cccc(NCc4nnc(-c5ccncn5)n4C)c3)c2)C(C)(C)C)cc1` [Compound D182, (2S,4R)-1-((S)-3,3-dimethyl-2-(2-(3-((5-(3-((R)-1-(3-(((4-methyl-5-(pyrimidin-4-yl)-4H-1,2,4-triazol-3-yl)methyl)amino)benzamido)ethyl)phenoxy)pentyl)oxy)propoxy)acetamido)butanoyl)-4-hydroxy-N-(4-(4-methylthiazol-5-yl)benzyl)pyrrolidine-2-carboxamide], the IC50 in the assay with PAXF1657 KO Clone #4 (setting [1]) was 10 µM; in the assay on PAXF1657 EV (setting [5]) it was 0.12 µM. The inhibition at 0.3 µM at GRK2 (setting [2]) stood at 29.1%. For the same compound, at GRK2 (setting [3]), the inhibition at 1 µM came out at 29.5%. The inhibition at 3 µM on GRK2 (setting [4]) was determined as 21.3%. The DC50 on GRK2 (PAXF1657, 24 h, read-out: Degradation Assay - Full Dose Response: IC50 (uM) [cell line: PAXF1657, time point: 24 h]) is 0.38 µM.
Turning to `Cn1c(CNc2cccc(C(=O)NCc3ccc(OCCCCCOCCCOCC(=O)Nc4cccc5c4CN(C4CCC(=O)NC4=O)C5=O)cc3)c2)nnc1-c1ccncn1` (stereo not drawn) [Compound D167, N-(4-(5-(3-(2-(2-(2,6-dioxopiperidin-3-yl)-1-oxoisoindolin-4-ylamino)-2-oxoethoxy)propoxy)pentyloxy)benzyl)-3-((4-methyl-5-(pyrimidin-4-yl)-4H-1,2,4-triazol-3-yl)methylamino)benzamide], the IC50 with PAXF1657 KO Clone #4 (setting [1]) was more than 30 µM; with PAXF1657 EV (setting [5]), 2.44 µM. Besides, at GRK2 (setting [2]), the inhibition at 0.3 µM was found to be 33.3%. In addition, the inhibition at 1 µM on GRK2 (setting [3]) turned out to be 57.4%. The inhibition at 3 µM at GRK2 (setting [4]) is 55.2%.
For `Cn1c(CNc2cccc(C(=O)NCc3cccc(OCCCCCCCn4cc(CCCC(=O)Nc5cccc6c5CN(C5CCC(=O)NC5=O)C6=O)nn4)c3)c2)nnc1-c1ccncn1` (stereo not drawn) [Compound D61], the IC50 in the assay on PAXF1657 KO Clone #4 (setting [6]) and with PAXF1657 EV (setting [10]) was more than 10 µM each time. Also, at GRK2 (setting [7]), the inhibition at 0.3 µM came out at 28%. Further, the inhibition at 1 µM at GRK2 (setting [8]) stood at 55%. Also, at GRK2 (setting [9]), the inhibition at 3 µM is 52%.
Turning to `Cc1ncsc1-c1ccc(CNC(=O)[C@@H]2C[C@@H](O)CN2C(=O)[C@@H](NC(=O)COCCCOCCCCCOc2ccc(CNC(=O)c3cccc(NCc4nnc(-c5ccncn5)n4C)c3)cc2)C(C)(C)C)cc1` [Compound D168], the IC50 in the assay with PAXF1657 KO Clone #4 (setting [1]) is 6.03 µM; in the assay with PAXF1657 EV (setting [5]), more than 1.88 µM. In addition, the inhibition at 0.3 µM at GRK2 (setting [2]) was found to be 0.276%. Besides, the inhibition at 1 µM at GRK2 (setting [3]) is -12%. On GRK2 (setting [4]), the inhibition at 3 µM was -22%.
In the case of `Cn1c(CNc2cccc(C(=O)N[C@H]3CCOc4ccc(OCCCCCCOCCOCCOCCCCCC(=O)Nc5cccc6c5CN(C5CCC(=O)NC5=O)C6=O)cc43)c2)nnc1-c1ccncn1` (stereo partly drawn) [Compound D156, N-((4S)-6-(6-(2-(2-(6-(2-(2,6-dioxopiperidin-3-yl)-1-oxoisoindolin-4-ylamino)-6-oxohexyloxy)ethoxy)ethoxy)hexyloxy)chroman-4-yl)-3-((4-methyl-5-(pyrimidin-4-yl)-4H-1,2,4-triazol-3-yl)methylamino)benzamide], the values for the IC50 in the assay on PAXF1657 KO Clone #4 (setting [1]) and in the assay on PAXF1657 EV (setting [5]) were more than 30 µM and 2.15 µM, respectively. For the same compound, at GRK2 (setting [2]), the inhibition at 0.3 µM was -8.15%. Further, on GRK2 (setting [3]), the inhibition at 1 µM is 2.96%. Moreover, the inhibition at 3 µM at GRK2 (setting [4]) was 11.5%.
Turning to `Cn1c(CNc2cccc(C(=O)N[C@@H]3CCOc4ccc(OCCCCCCOCCOCCOCCCCCC(=O)N5CCN(c6ccc7c(c6)CN(C6CCC(=O)NC6=O)C7=O)CC5)cc43)c2)nnc1-c1ccncn1` (stereo partly drawn) [Compound D188, N-((4R)-6-(6-(2-(2-(6-(4-(2-(2,6-dioxopiperidin-3-yl)-1-oxoisoindolin-5-yl)piperazin-1-yl)-6-oxohexyloxy)ethoxy)ethoxy)hexyloxy)chroman-4-yl)-3-((4-methyl-5-(pyrimidin-4-yl)-4H-1,2,4-triazol-3-yl)methylamino)benzamide], the IC50 with PAXF1657 KO Clone #4 (setting [1]) was more than 30 µM. At GRK2 (setting [11]), the inhibition at 0.3 µM turned out to be 56.9%, the inhibition at 1 µM was determined as 67.7% and the inhibition at 3 µM was determined as 78.2%. The IC50 in the assay with PAXF1657 EV (setting [5]) stood at 1.26 µM.
As to `Cn1c(CNc2cccc(C(=O)NCc3cccc(OCCCCCOCCCOCC(=O)N4CCN(c5ccc6c(c5)CN(C5CCC(=O)NC5=O)C6=O)CC4)c3)c2)nnc1-c1ccncn1` (stereo not drawn) [Compound D189, N-(3-((5-(3-(2-(4-(2-(2,6-dioxopiperidin-3-yl)-1-oxoisoindolin-5-yl)piperazin-1-yl)-2-oxoethoxy)propoxy)pentyl)oxy)benzyl)-3-(((4-methyl-5-(pyrimidin-4-yl)-4H-1,2,4-triazol-3-yl)methyl)amino)benzamide], the IC50 in the assay with PAXF1657 KO Clone #4 (setting [1]) is more than 30 µM; in the assay with PAXF1657 EV (setting [5]), 0.42 µM. Also, the inhibition at 0.3 µM at GRK2 (setting [2]) is 2.78%. Moreover, the inhibition at 1 µM on GRK2 (setting [3]) turned out to be 35.8%. For the same compound, at GRK2 (setting [4]), the inhibition at 3 µM amounted to 58.5%.
On to `Cn1c(CNc2cccc(C(=O)NCc3cccc(OCCCCCn4cc(CCCCC(=O)Nc5cccc6c5CN(C5CCC(=O)NC5=O)C6=O)nn4)c3)c2)nnc1-c1ccncn1` (stereo not drawn) [Compound D58], for which the IC50 is more than 10 µM with PAXF1657 KO Clone #4 (setting [6]) and 1 to 10 µM with PAXF1657 EV (setting [10]). Further, at GRK2 (setting [7]), the inhibition at 0.3 µM turned out to be 7%. In addition, on GRK2 (setting [8]), the inhibition at 1 µM turned out to be 41%. Moreover, the inhibition at 3 µM at GRK2 (setting [9]) is 68%.
As to `C[C@@H](NC(=O)c1cccc(NCc2nnc(-c3ccncn3)n2C)c1)c1cccc(OCCCCCCCn2cc(CCCC(=O)Nc3cccc4c3CN(C3CCC(=O)NC3=O)C4=O)nn2)c1` (stereo partly drawn) [Compound D158, N-((1R)-1-(3-(7-(4-(4-(2-(2,6-dioxopiperidin-3-yl)-1-oxoisoindolin-4-ylamino)-4-oxobutyl)-1H-1,2,3-triazol-1-yl)heptyloxy)phenyl)ethyl)-3-((4-methyl-5-(pyrimidin-4-yl)-4H-1,2,4-triazol-3-yl)methylamino)benzamide], the figures for the IC50 in the assay on PAXF1657 KO Clone #4 (setting [1]) and in the assay with PAXF1657 EV (setting [5]) were more than 30 µM and 1.71 µM, respectively. The inhibition at 0.3 µM at GRK2 (setting [2]) was determined as 42.9%. The inhibition at 1 µM at GRK2 (setting [3]) is 65.8%. On GRK2 (setting [4]), the inhibition at 3 µM turned out to be 81.9%.

The record behind these values is US20240174637A1, “DEGRADERS OF GRK2 AND USES THEREOF” (Sonata Therapeutics, Inc., priority 2021, published 2024).
